GI50 and TGI data for three compounds are collected here from PubChem BioAssay (NCI).

Test systems include UO-31 renal; A549 NSCLC; SW-620 colon; HS 578T breast; HOP-92 NSCLC; HCT-15 colon; OVCAR-8 ovarian; 786-0 renal; OVCAR-3 ovarian; HCC-2998 colon.
Common to all, as to assay: NCI tumour cell line growth inhibition, 48 h

Molecules are shown by their SMILES.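 Compound exposure: 48 hours, 5 concentrations, 96-well plates. GI50: concentration for 50% inhibition of growth. TGI is the concentration that stops growth completely.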

With `COc1ccc2c(c1)C(C)Cc1c(Cl)nc(C)nc1N2C` (stereo not given), the GI50 in the experiment on UO-31 renal was 3.99 µM; in the experiment on A549 NSCLC, 3 µM; with SW-620 colon it was 2.45 µM; in the experiment with HS 578T breast it was 3.98 µM; in the experiment with HOP-92 NSCLC, 3.95 µM; in the experiment with HCT-15 colon, 1.33 µM. Also, the GI50 in the experiment on OVCAR-8 ovarian is 3.58 µM; in the experiment with 786-0 renal, 3.94 µM; in the experiment with OVCAR-3 ovarian, 1.4 µM; in the experiment on HCC-2998 colon it was 2.29 µM. The TGI was 36.1 µM in the experiment on UO-31 renal; 24.4 µM in the experiment on A549 NSCLC; 24.4 µM in the experiment on SW-620 colon; 64.4 µM with HS 578T breast; 29.5 µM in the experiment with HOP-92 NSCLC; 8.05 µM in the experiment with HCT-15 colon. The TGI came to 15.4 µM in the experiment with OVCAR-8 ovarian, 32 µM with 786-0 renal, 4.17 µM with OVCAR-3 ovarian and 8.93 µM in the experiment on HCC-2998 colon.
Regarding `CN(C)CC1CCCCCC(CN(C)C)C1=O` (stereo not given), the GI50 in the experiment on UO-31 renal was 1.77 µM; in the experiment with A549 NSCLC, 14.7 µM; in the experiment on SW-620 colon, 1.13 µM; in the experiment with HS 578T breast, 21 µM; in the experiment with HOP-92 NSCLC, 2.69 µM; with HCT-15 colon it was 1.24 µM. The GI50 was 2.61 µM in the experiment on OVCAR-8 ovarian, 12.8 µM with 786-0 renal, 1.48 µM in the experiment with OVCAR-3 ovarian and 17.1 µM in the experiment with HCC-2998 colon. For the same compound, the TGI in the experiment with UO-31 renal is 4.5 µM; in the experiment with A549 NSCLC, 30.7 µM; with SW-620 colon it was 2.72 µM; with HS 578T breast it was greater than 64.3 µM; in the experiment on HOP-92 NSCLC, 8.11 µM; in the experiment on HCT-15 colon it was 4.26 µM. Moreover, the TGI in the experiment with OVCAR-8 ovarian is 8.54 µM; in the experiment with 786-0 renal, 33.2 µM; in the experiment with OVCAR-3 ovarian it was 5.05 µM; in the experiment with HCC-2998 colon, 33.3 µM.
`COc1cc(C2CC(c3ccc(N(C)C)cc3)=NN2C(C)=O)cc(OC)c1OC` (stereo not given): the GI50 is 3.59 µM in the experiment with UO-31 renal; 3.36 µM in the experiment on A549 NSCLC; 0.928 µM with SW-620 colon; 0.441 µM in the experiment on HS 578T breast; 29.6 µM with HOP-92 NSCLC; 1 µM in the experiment on HCT-15 colon. In addition, the GI50 was 6.13 µM in the experiment on OVCAR-8 ovarian, 2.36 µM in the experiment on 786-0 renal, 0.352 µM with OVCAR-3 ovarian and 2.61 µM in the experiment on HCC-2998 colon. The TGI was greater than 100 µM in the experiment on UO-31 renal; greater than 100 µM in the experiment with A549 NSCLC; greater than 100 µM in the experiment with SW-620 colon; 3.03 µM with HS 578T breast; greater than 100 µM in the experiment on HOP-92 NSCLC; greater than 100 µM in the experiment with HCT-15 colon. Besides, the TGI in the experiment on OVCAR-8 ovarian is greater than 100 µM; in the experiment with 786-0 renal, greater than 78 µM; with OVCAR-3 ovarian, 1.84 µM; with HCC-2998 colon, 27.1 µM.
